Data taken from ChEMBL document CHEMBL1126830, “Cholecystokinin peptidomimetics as selective CCK-B antagonists: design, synthesis, and in vitro and in vivo biochemical properties” (J Med Chem, 1993).

Columns and labels:
[1] = target: T1, Cholecystokinin receptor type A (Cavia porcellus, UniProt Q63931); experiment: Tested for inhibition of [3H]-pCCK-8 specific binding to cholecystokinin type A receptor in guinea pig pancreatic membranes; format: cell membranes
T1 sequence (Q63931 whole entry): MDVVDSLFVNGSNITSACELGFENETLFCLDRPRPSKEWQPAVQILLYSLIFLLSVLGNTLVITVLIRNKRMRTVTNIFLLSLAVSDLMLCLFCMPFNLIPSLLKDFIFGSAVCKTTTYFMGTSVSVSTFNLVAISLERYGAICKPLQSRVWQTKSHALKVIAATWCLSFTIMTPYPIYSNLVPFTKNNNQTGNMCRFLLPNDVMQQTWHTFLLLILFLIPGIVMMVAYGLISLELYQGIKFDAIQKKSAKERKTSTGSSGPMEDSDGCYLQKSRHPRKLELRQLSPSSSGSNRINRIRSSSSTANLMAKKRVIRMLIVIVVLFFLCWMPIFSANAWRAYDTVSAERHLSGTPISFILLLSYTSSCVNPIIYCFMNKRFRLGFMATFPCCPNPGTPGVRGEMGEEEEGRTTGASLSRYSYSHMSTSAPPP

[2] = target: T2, Cholecystokinin receptor type A (Rattus norvegicus, UniProt P30551); experiment: Tested for binding affinity towards cholecystokinin type A receptor in rat pancreas by displacement of [3H]pCCK-8 radioligand
T2 sequence (P30551 whole entry): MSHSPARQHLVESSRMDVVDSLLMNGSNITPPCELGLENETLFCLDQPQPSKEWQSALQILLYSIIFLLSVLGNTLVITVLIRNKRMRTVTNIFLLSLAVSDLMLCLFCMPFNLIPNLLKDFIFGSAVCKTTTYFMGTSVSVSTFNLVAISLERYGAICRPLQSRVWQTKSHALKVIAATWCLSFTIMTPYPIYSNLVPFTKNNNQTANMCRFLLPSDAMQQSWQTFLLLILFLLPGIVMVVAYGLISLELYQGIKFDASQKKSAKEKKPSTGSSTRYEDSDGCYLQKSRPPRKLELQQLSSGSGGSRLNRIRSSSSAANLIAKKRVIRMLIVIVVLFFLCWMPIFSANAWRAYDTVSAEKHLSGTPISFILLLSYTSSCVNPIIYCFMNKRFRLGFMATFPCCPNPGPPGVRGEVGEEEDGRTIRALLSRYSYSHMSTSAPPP

[3] = target: T3, Gastrin/cholecystokinin type B receptor (Rattus norvegicus, UniProt P30553); experiment: Tested for binding affinity towards cholecystokinin type B receptor in rat […] by displacement of [3H]pCCK-8 radioligand
T3 sequence (P30553 whole entry): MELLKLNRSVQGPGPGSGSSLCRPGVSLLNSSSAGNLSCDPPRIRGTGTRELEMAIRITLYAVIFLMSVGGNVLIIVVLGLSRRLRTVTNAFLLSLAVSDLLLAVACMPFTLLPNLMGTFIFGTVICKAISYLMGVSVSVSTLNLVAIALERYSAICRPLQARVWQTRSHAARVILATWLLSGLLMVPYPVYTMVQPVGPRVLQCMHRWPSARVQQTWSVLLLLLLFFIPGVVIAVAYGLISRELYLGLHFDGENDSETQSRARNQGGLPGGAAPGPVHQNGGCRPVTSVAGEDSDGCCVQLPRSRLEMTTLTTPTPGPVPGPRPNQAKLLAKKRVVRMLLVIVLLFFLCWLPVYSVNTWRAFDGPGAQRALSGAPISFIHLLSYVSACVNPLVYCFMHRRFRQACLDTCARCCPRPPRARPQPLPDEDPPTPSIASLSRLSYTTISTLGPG

[4] = target: T4, Gastrin/cholecystokinin type B receptor (Mus musculus, UniProt P56481); experiment: Tested for binding affinity towards cholecystokinin type B receptor in mouse brain by displacement of [3H]pBC264 radioligand (icv); format: tissue-based
T4 sequence (P56481 whole entry): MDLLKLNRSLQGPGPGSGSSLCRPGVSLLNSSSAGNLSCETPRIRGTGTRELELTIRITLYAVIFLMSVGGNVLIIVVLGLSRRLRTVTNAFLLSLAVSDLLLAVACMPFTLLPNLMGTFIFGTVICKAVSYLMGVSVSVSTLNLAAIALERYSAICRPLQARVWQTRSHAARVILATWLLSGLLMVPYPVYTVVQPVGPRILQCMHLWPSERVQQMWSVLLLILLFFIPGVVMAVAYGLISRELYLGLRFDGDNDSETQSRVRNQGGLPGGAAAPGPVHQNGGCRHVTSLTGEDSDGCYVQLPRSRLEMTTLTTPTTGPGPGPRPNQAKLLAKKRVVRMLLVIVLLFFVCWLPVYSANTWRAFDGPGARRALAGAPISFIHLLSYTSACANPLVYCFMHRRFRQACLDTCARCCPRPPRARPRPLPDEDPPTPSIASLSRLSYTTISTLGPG

Structure (SMILES)	Ki [1]	further results
CC(Cc1c[nH]c2ccccc12)(NC(=O)NC(c1ccccc1)(c1ccccc1)c1ccccc1)C(=O)NCCc1ccccc1 (stereo not drawn)	1.78 µM	–
CC(Cc1c[nH]c2ccccc12)(NC(=O)OC1[C@H]2C[C@@H]3C[C@@H](C[C@H]1C3)C2)C(=O)NCCc1ccccc1 (stereo partly drawn)	1.89 µM	–
CC(Cc1c[nH]c2ccccc12)(NC(=O)OC1[C@H]2C[C@@H]3C[C@@H](C[C@H]1C3)C2)C(=O)NCCc1ccc(Cl)c(Cl)c1 (stereo partly drawn)	1.54 µM	–
CC(Cc1c[nH]c2ccccc12)(NC(=O)OC1[C@H]2C[C@@H]3C[C@@H](C[C@H]1C3)C2)C(=O)N(CCc1ccccc1)CC(=O)O (stereo partly drawn)	1.52 µM	Ki [2]: 0.531 µM
CC(Cc1c[nH]c2ccccc12)(NC(=O)OC1[C@H]2C[C@@H]3C[C@@H](C[C@H]1C3)C2)C(=O)Nc1ccccc1 (stereo partly drawn)	6.08 µM	–
CC(Cc1c[nH]c2ccccc12)(C(=O)OC1[C@H]2C[C@@H]3C[C@@H](C[C@H]1C3)C2)C(=O)N(CCc1ccc(Cl)cc1Cl)CC(=O)O (stereo partly drawn)	3.05 µM	Ki [2]: 1.22 µM; Ki [3]: 0.028 µM; Ki [4]: 0.014 µM
CC(Cc1ccccc1)(NC(=O)OC1[C@H]2C[C@@H]3C[C@@H](C[C@H]1C3)C2)C(=O)N(CCc1ccccc1)CC(=O)O (stereo partly drawn)	3.8 µM	–
CC(Cc1c[nH]c2ccccc12)(NC(=O)Nc1ccc(Cl)cc1)C(=O)NCCc1ccccc1 (stereo not drawn)	6.33 µM	–
CC(Cc1c[nH]c2ccccc12)(NC(=O)OC1[C@H]2C[C@@H]3C[C@@H](C[C@H]1C3)C2)C(=O)NCCc1ccc(Cl)cc1Cl (stereo partly drawn)	3.16 µM	–
CC(Cc1c[nH]c2ccccc12)(NC(=O)OC1[C@H]2C[C@@H]3C[C@@H](C[C@H]1C3)C2)C(=O)N(CCc1ccc(Cl)cc1Cl)CC(=O)O (stereo partly drawn)	1.04 µM	–
CC(Cc1ccc(Br)cc1)(NC(=O)OC1[C@H]2C[C@@H]3C[C@@H](C[C@H]1C3)C2)C(=O)N(CCc1ccccc1)CC(=O)O (stereo partly drawn)	3.41 µM	–
CC(Cc1c[nH]c2ccccc12)(NC(=O)OC1[C@H]2C[C@@H]3C[C@@H](C[C@H]1C3)C2)C(=O)NCCc1ccc([N+](=O)[O-])cc1 (stereo partly drawn)	2.35 µM	–
COc1ccc(CCNC(=O)C(C)(Cc2c[nH]c3ccccc23)NC(=O)OC2[C@H]3C[C@@H]4C[C@@H](C[C@H]2C4)C3)cc1 (stereo partly drawn)	3.12 µM	–
CC(Cc1c[nH]c2ccccc12)(NC(=O)OC1[C@H]2C[C@@H]3C[C@@H](C[C@H]1C3)C2)C(=O)N(CCC(=O)O)CCc1ccccc1 (stereo partly drawn)	1.32 µM	–
CC(Cc1c[nH]c2ccccc12)(NC(=O)OC1[C@H]2C[C@@H]3C[C@@H](C[C@H]1C3)C2)C(=O)NCCc1ccc(Br)cc1 (stereo partly drawn)	2.14 µM	–
CC(Cc1c[nH]c2ccccc12)(NC(=O)OC1[C@H]2C[C@@H]3C[C@@H](C[C@H]1C3)C2)C(=O)NCCc1ccc(Cl)cc1 (stereo partly drawn)	1.61 µM	–
CC(Cc1c[nH]c2ccccc12)(NC(=O)OC1[C@H]2C[C@@H]3C[C@@H](C[C@H]1C3)C2)C(=O)NCCc1cccc2ccccc12 (stereo partly drawn)	2.37 µM	–
O=C(O)CN(CCc1ccccc1)C(=O)C(Cc1c[nH]c2ccccc12)NC(=O)OC1[C@H]2C[C@@H]3C[C@@H](C[C@H]1C3)C2 (stereo partly drawn)	2.84 µM	–
CC(Cc1c[nH]c2ccccc12)(NC(=O)OC1[C@H]2C[C@@H]3C[C@@H](C[C@H]1C3)C2)C(=O)Nc1ccc2ccccc2c1 (stereo partly drawn)	2.36 µM	–
CC(Cc1c[nH]c2ccccc12)(NC(=O)OC1[C@H]2C[C@@H]3C[C@@H](C[C@H]1C3)C2)C(=O)NCCCc1ccccc1 (stereo partly drawn)	4.25 µM	–
CC(Cc1c[nH]c2ccccc12)(NC(=O)OC1[C@H]2C[C@@H]3C[C@@H](C[C@H]1C3)C2)C(=O)NCC(=O)O (stereo partly drawn)	> 4 µM	–
CC(Cc1cccc2ccccc12)(NC(=O)OC1[C@H]2C[C@@H]3C[C@@H](C[C@H]1C3)C2)C(=O)N(CCc1ccccc1)CC(=O)O (stereo partly drawn)	2.01 µM	–
CC(Cc1c[nH]c2ccccc12)(NC(=O)Nc1ccc2ccccc2c1)C(=O)NCCc1ccccc1 (stereo not drawn)	0.769 µM	–
CC(Cc1c[nH]c2ccccc12)(NC(=O)OC1[C@H]2C[C@@H]3C[C@@H](C[C@H]1C3)C2)C(=O)NCc1ccccc1 (stereo partly drawn)	4.1 µM	–
CC(Cc1ccc2ccccc2c1)(NC(=O)OC1[C@H]2C[C@@H]3C[C@@H](C[C@H]1C3)C2)C(=O)N(CCc1ccccc1)CC(=O)O (stereo partly drawn)	0.07 µM	–
CC(Cc1c[nH]c2ccccc12)(NC(=O)OC1[C@H]2C[C@@H]3C[C@@H](C[C@H]1C3)C2)C(=O)N(CCc1ccc(Cl)cc1)CC(=O)O (stereo in doubt; 26)	1.13 µM	Ki [2]: 1.36 µM
CC(Cc1c[nH]c2ccccc12)(NC(=O)OC1[C@H]2C[C@@H]3C[C@@H](C[C@H]1C3)C2)C(=O)N(CCc1ccc(Cl)cc1)CC(=O)O (stereo in doubt; 26A)	1.06 µM	Ki [2]: 1.23 µM
